How the values were obtained:
Experiment in all cases: Kinase inhibitor profiling, autophosphorylation
Type in all cases: biochemical
SRC = biological target: T1, SRC (Mus musculus, UniProt P05480)
T1 construct: specificity data for proteins generated from a library of eighteen full-length clones; host or cells: rabbit reticulocyte lysate, TnT coupled transcription/translation
Protocol: (§1) Proteins were produced from DNA plasmids of Mock Luciferase, Promega, tyrosine kinase clone Spleen Tyrosine kinase (SYK, IMAGE ID# 3870426) and Eph receptor-A7 (EphA7, IMAGE ID# 3991628) (Incyte Genomics, CA) and immobilized on streptavidin or avidin coated NPT-IPR plates as described in the Example 7. To promote autophosphorylation in these immobilized and purified proteins, Mn++ ions were added in a 50 μl reaction containing 5 mM MgCl2, 5 mM MnCl2, 100 μM ATP, 25 mM Tris-HCl buffer pH 7.4, 0.05 mM Na3VO4, 0.004% TritonX-100, 2 mM DTT and EDTA-free protease inhibitor (Roche Molecular Biochemicals). This mixture was incubated with shaking at room temperature overnight to allow autophosphorylation. Following this incubation, wells were washed 2 times with TT-buffer and 2 times with water. Following this step, 50 ng Sulfo-TAG labeled anti-phosphotyrosine in buffer containing 25 mM Tris-HCl buffer pH 7.4, 5 mM MgCl2, 0.05 mM Na3VO4, 0.004% TritonX-100, 2 mM DTT and 0.05% IgG in a final volume of 50 μl was added followed by incubation at room temperature for 45 min. The unbound reagents were removed by one time washing with water, and the TAG label was detected in presence of 150 μl IPR assay buffer (0.4 mM Gly—Gly buffer, pH 7.8, 1 mM EDTA, 0.1 M TPA). The ECL signals were measured using an imaging plate reader.
(§2) Proteins were produced using 100 ng of plasmid DNA Mock (Luciferase, Promega) or tyrosine kinases (Fert2 IMAGE ID # 4485050, FGFR1 IMAGE ID # 4037899, Fgfr2 IMAGE ID # 2654352, Src IMAGE ID # 3156400, BMX IMAGE ID # 3919253, LCK IMAGE ID # 4191610, Epha7 IMAGE ID # 3991628, Ephb4 IMAGE ID # 4013934, Tek IMAGE ID # 3482498, HCK IMAGE ID # 4778819, BTK IMAGE ID # 4478463, CSK IMAGE ID # 4398416, SYK IMAGE ID # 3870426, FGR IMAGE ID # 4419973, PTK2B IMAGE ID # 4339456, FRK(IMAGE ID # 4515877, Kit IMAGE ID # 2644960, Fgfr-4 IMAGE ID # 4239139, NTRK3 IMAGE ID # 4181574, Kdr IMAGE ID # 4238984, Incyte Genomics, CA) and immobilized on SA or avidin coated NPT-IPR plates as described in previous examples. The unbound components of the translation reaction (including any endogenous kinases) were removed by 3 washes with TT-buffer (25 mM Tris-HCl buffer pH 7.4 and 0.004% Triton), two five minutes washes with high-salt wash buffer (25 mM Tris-HCl buffer pH 7.4, 0.004% Triton, 1M NaCl and 5 mM DTT) and 3 washes with TT-buffer. […] The mixture was incubated at room temperature for 10 mm before starting the kinase reaction by adding 25 μl of 200 μM ATP in buffer A. This mixture was incubated with intermittent shaking at room temperature for 2 hours to overnight to allow (a) phosphorylation of the pEY substrate and (b) autophosphorylation of the immobilized kinases. Autophosphorylation and phosphorylation of the pEY was measured as described in Examples 7 and 8.
(§3) The ECL signal in control wells produced by tyrosine kinases was compared to the wells containing inhibitor compounds. The signal produced from Mock was negligible.

BMX = biological target: T2, BMX (Homo sapiens, UniProt P51813)
T2 construct: specificity data for proteins generated from a library of eighteen full-length clones; host or cells: rabbit reticulocyte lysate, TnT coupled in vitro transcription/translation (cell-free)
T2 sequence (P51813 1-675): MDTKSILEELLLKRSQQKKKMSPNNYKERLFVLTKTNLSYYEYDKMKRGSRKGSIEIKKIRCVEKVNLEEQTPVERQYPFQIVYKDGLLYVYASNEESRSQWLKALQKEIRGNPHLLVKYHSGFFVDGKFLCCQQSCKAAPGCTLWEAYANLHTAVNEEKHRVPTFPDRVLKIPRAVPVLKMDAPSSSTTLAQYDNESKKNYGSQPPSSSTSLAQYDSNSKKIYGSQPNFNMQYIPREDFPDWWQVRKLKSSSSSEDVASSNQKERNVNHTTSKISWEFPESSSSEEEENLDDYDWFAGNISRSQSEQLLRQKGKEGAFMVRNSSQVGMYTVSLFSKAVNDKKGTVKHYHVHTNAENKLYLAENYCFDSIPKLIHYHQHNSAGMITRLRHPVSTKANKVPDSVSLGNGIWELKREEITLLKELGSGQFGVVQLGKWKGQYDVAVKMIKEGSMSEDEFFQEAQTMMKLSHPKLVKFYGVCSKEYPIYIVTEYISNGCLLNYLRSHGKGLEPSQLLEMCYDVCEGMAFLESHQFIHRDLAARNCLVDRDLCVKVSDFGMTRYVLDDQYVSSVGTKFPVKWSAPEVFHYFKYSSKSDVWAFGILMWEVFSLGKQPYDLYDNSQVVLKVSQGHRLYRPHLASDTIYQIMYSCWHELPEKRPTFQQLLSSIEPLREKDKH
Protocol: as §1, §2, §3

CSK = biological target: T3, CSK (Homo sapiens, UniProt P41240)
T3 construct: specificity data for proteins generated from a library of eighteen full-length clones; host or cells: rabbit reticulocyte lysate, TnT coupled in vitro transcription/translation (cell-free)
Protocol: as §1, §2, §3

FGFR1 = biological target: T4, FGFR1 (Homo sapiens, UniProt P11362)
T4 construct: specificity data for proteins generated from a library of eighteen full-length clones; host or cells: rabbit reticulocyte lysate, TnT coupled transcription/translation
Protocol: as §1, §2, §3

FGFR2 = biological target: T5, FGFR2 (Mus musculus, UniProt P21803)
T5 construct: specificity data for proteins generated from a library of eighteen full-length clones; host or cells: rabbit reticulocyte lysate, TnT coupled in vitro transcription/translation (cell-free)
Protocol: as §1, §2, §3

FRK = tested on: FRK
Protocol: as §1, §2, §3

Fert2 = biological target: T6, Fert2 (Mus musculus, UniProt P70451)
T6 construct: specificity data for proteins generated from a library of eighteen full-length clones; host or cells: rabbit reticulocyte lysate, TnT coupled transcription/translation
Protocol: as §1, §2, §3

Fgfr4 = biological target: T7, Fgfr4 (Mus musculus, UniProt Q03142)
T7 construct: specificity data for proteins generated from a library of eighteen full-length clones; biotin on random lysines (biotin-Lys-tRNA); host or cells: rabbit reticulocyte lysate, coupled transcription/translation (TnT, Promega)
Protocol: as §1, §2, §3

HCK = biological target: T8, HCK (Homo sapiens, UniProt P08631)
T8 construct: specificity data for proteins generated from a library of eighteen full-length clones; host or cells: rabbit reticulocyte lysate, TnT coupled in vitro transcription/translation (cell-free)
Protocol: as §1, §2, §3

SYK = biological target: T9, SYK (Homo sapiens, UniProt P43405)
T9 construct: autophosphorylation activity from full-length clones Spleen Tyrosine Kinase (SYK) and Eph receptor-A7 (EphA7); host or cells: rabbit reticulocyte lysate, TnT coupled in vitro transcription/translation (cell-free)
Protocol: as §1, §2, §3

T4 sequence (P11362 22-822): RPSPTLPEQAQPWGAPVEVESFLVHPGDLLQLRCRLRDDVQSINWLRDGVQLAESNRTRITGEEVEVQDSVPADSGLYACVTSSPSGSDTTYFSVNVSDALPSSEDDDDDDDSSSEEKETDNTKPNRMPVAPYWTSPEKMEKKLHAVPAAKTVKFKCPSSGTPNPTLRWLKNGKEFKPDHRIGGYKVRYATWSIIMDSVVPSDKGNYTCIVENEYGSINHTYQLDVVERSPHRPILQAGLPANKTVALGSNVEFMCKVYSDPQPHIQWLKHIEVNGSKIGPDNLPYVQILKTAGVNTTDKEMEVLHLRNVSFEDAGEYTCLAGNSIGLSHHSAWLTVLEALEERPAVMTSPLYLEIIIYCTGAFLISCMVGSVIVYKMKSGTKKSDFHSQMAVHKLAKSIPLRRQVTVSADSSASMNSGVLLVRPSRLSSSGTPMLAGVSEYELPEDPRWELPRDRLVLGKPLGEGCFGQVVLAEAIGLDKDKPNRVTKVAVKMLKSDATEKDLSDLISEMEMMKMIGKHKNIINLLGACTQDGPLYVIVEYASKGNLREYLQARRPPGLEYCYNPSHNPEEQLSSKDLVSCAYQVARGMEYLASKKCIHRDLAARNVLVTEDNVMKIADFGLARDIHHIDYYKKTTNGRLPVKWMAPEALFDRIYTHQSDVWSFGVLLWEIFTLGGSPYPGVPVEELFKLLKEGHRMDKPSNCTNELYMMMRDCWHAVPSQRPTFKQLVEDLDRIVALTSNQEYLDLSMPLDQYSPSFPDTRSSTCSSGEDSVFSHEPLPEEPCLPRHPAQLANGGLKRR
T8 sequence (P08631 whole entry): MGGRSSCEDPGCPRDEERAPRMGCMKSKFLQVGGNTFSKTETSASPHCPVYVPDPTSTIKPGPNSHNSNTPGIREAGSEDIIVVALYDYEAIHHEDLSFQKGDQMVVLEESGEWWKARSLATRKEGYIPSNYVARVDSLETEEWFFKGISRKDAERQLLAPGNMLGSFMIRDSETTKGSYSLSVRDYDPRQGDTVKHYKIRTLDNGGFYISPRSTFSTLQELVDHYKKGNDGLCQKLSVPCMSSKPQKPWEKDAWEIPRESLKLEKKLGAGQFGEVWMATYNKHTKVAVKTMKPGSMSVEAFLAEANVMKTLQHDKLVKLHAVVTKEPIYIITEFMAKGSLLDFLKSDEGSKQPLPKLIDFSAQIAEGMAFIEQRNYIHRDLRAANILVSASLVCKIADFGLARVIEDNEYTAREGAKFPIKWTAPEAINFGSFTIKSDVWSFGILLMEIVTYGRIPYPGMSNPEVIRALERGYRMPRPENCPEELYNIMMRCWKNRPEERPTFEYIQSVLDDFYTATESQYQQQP
T3 sequence (P41240 whole entry): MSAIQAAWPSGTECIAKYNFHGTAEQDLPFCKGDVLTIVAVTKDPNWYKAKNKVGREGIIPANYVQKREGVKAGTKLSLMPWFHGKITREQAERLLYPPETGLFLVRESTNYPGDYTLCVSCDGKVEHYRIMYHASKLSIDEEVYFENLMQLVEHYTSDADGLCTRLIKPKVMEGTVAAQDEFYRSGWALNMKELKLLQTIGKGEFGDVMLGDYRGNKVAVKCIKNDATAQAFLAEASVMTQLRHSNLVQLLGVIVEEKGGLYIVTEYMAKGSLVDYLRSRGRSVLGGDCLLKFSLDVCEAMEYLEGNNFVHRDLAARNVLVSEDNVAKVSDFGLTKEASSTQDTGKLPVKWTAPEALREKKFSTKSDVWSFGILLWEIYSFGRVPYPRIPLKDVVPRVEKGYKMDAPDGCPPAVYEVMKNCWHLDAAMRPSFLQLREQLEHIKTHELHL
T7 sequence (Q03142 17-799): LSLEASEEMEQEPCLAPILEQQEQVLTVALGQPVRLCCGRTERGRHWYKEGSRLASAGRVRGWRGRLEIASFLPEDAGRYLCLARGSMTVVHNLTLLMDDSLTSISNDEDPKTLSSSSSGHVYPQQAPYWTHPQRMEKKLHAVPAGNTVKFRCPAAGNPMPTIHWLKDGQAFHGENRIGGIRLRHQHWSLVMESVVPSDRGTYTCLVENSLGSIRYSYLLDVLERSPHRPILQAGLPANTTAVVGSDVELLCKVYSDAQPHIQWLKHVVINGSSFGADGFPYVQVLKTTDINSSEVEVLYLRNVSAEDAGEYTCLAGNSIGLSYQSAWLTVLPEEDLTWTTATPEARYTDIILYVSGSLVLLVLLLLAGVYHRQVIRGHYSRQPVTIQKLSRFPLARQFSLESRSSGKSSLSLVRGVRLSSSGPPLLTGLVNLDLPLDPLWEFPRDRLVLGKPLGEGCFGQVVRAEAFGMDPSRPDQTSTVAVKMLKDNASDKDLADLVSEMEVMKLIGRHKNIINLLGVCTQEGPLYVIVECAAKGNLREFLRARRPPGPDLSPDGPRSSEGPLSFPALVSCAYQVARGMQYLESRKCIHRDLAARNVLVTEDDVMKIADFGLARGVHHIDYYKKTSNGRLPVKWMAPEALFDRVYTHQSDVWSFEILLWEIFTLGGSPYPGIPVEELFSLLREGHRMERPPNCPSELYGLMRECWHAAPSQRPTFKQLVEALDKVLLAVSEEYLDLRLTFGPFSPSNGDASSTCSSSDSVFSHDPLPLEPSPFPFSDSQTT
T5 sequence (P21803 22-821): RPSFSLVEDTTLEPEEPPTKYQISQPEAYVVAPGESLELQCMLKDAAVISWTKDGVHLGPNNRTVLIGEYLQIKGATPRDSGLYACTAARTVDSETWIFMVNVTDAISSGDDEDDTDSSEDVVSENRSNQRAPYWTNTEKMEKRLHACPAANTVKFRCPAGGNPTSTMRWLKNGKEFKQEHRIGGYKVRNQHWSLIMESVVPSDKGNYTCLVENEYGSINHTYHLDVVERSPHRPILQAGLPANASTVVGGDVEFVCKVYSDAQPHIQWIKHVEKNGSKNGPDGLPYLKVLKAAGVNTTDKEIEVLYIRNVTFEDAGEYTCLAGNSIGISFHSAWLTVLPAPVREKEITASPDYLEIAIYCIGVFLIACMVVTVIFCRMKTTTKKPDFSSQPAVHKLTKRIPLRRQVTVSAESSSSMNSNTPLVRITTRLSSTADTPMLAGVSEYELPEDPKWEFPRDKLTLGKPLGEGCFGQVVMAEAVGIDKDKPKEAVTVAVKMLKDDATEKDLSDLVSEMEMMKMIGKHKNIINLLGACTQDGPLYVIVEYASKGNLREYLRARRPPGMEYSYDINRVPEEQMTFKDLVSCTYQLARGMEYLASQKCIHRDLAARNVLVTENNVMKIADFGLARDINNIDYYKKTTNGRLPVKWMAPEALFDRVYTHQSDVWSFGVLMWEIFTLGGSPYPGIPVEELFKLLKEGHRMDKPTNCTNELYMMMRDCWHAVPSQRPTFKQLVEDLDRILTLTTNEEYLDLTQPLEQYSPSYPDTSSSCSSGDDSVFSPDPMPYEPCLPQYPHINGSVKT
T6 sequence (P70451 whole entry): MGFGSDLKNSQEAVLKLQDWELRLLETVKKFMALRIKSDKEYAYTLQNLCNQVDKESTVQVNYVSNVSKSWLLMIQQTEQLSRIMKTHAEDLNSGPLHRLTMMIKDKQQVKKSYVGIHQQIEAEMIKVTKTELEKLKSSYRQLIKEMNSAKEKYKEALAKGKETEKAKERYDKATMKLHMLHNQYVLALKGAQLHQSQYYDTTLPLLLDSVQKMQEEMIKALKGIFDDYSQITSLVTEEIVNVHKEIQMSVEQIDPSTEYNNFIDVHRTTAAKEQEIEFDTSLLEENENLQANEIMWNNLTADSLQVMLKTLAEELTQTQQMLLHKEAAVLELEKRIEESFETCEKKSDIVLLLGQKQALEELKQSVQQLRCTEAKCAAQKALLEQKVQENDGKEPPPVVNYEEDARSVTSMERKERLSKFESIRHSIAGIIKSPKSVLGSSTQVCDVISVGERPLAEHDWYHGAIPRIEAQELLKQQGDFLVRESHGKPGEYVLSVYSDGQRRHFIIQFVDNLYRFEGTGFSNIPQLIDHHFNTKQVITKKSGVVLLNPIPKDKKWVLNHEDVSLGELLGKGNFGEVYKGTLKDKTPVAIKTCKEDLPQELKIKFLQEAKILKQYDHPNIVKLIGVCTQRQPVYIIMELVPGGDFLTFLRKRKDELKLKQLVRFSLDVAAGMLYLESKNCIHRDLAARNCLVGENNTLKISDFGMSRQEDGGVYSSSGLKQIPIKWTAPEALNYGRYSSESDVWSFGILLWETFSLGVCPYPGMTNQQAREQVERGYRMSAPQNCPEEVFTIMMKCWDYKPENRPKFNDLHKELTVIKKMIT

Row | Molecule | Inhibition specificity towards Autophosphorylation at 10X IC50, Src (SRC) | Inhibition specificity towards Autophosphorylation at 10X IC50, BMX (BMX) | Inhibition specificity towards Autophosphorylation at 10X IC50, CSK (CSK) | Inhibition specificity towards Autophosphorylation at 10X IC50, FGFR1 (FGFR1) | Inhibition specificity towards Autophosphorylation at 10X IC50, FGFR2 (FGFR2) | Inhibition specificity towards Autophosphorylation at 10X IC50, FRK (FRK) | Inhibition specificity towards Autophosphorylation at 10X IC50, Fert2 (Fert2) | Inhibition specificity towards Autophosphorylation at 10X IC50, Fgfr4 (Fgfr4) | Inhibition specificity towards Autophosphorylation at 10X IC50, HCK (HCK) | Inhibition specificity towards Autophosphorylation at 10X IC50, SYK (SYK)
1 | Cc1ccc(-c2nn(C(C)(C)C)c3ncnc(N)c23)cc1 [PP1] | L (low inhibition (“L”=between 50–75% of the activity remaining)) | – | – | – | – | – | – | – | – | –
2 | COc1c(C=O)c(O)cc2c1C(=O)c1ccccc1C2=O [Damnacanthal] | H (high inhibition (“H”=less than 25% of the activity remaining)) | H (high inhibition (“H”=less than 25% of the activity remaining)) | M (medium inhibition (“M”=between 25 to 50% of the activity remaining)) | M (medium inhibition (“M”=between 25 to 50% of the activity remaining)) | M (medium inhibition (“M”=between 25 to 50% of the activity remaining)) | H (high inhibition (“H”=less than 25% of the activity remaining)) | L (low inhibition (“L”=between 50–75% of the activity remaining)) | H (high inhibition (“H”=less than 25% of the activity remaining)) | M (medium inhibition (“M”=between 25 to 50% of the activity remaining)) | M (medium inhibition (“M”=between 25 to 50% of the activity remaining))
3 | Cc1cc2ncc(-c3ccc(O)c(O)c3)nc2cc1C [AG-1433] | H (high inhibition (“H”=less than 25% of the activity remaining)) | H (high inhibition (“H”=less than 25% of the activity remaining)) | H (high inhibition (“H”=less than 25% of the activity remaining)) | H (high inhibition (“H”=less than 25% of the activity remaining)) | H (high inhibition (“H”=less than 25% of the activity remaining)) | H (high inhibition (“H”=less than 25% of the activity remaining)) | H (high inhibition (“H”=less than 25% of the activity remaining)) | H (high inhibition (“H”=less than 25% of the activity remaining)) | H (high inhibition (“H”=less than 25% of the activity remaining)) | H (high inhibition (“H”=less than 25% of the activity remaining))
4 | CC(C)(C)c1cc(C=C(C#N)C#N)cc(Br)c1O [AG-1024] | – | – | – | – | L (low inhibition (“L”=between 50–75% of the activity remaining)) | – | – | L (low inhibition (“L”=between 50–75% of the activity remaining)) | – | –
5 | Erbstatin analog | L (low inhibition (“L”=between 50–75% of the activity remaining)) | L (low inhibition (“L”=between 50–75% of the activity remaining)) | – | – | L (low inhibition (“L”=between 50–75% of the activity remaining)) | – | L (low inhibition (“L”=between 50–75% of the activity remaining)) | – | L (low inhibition (“L”=between 50–75% of the activity remaining)) | L (low inhibition (“L”=between 50–75% of the activity remaining))
6 | COC(=O)c1ccc(NCc2cc(O)ccc2O)cc1 [AG-957] | L (low inhibition (“L”=between 50–75% of the activity remaining)) | L (low inhibition (“L”=between 50–75% of the activity remaining)) | L (low inhibition (“L”=between 50–75% of the activity remaining)) | L (low inhibition (“L”=between 50–75% of the activity remaining)) | L (low inhibition (“L”=between 50–75% of the activity remaining)) | L (low inhibition (“L”=between 50–75% of the activity remaining)) | – | L (low inhibition (“L”=between 50–75% of the activity remaining)) | L (low inhibition (“L”=between 50–75% of the activity remaining)) | L (low inhibition (“L”=between 50–75% of the activity remaining))
